# Assay results as given in publication PMC8286599 (Gut Pathogens, 2021).
# Read-outs that look alike come from different tables or passages of the source.
# Columns and labels:
# [1] = tested on: MDR-S. Typhimurium strains; experiment: Stability assay, pH (MIC)
# Text: (§5) To explore the utility of phytochemicals as therapeutic molecules and their stability, individual phytochemicals were exposed to cationic salts, and different pH levels followed by analysing their MIC and MBC values against test strains as described earlier.
# (§6) Subsequent to exposure to varied conditions, the antimicrobial activity of the phytochemicals was estimated by determining their MIC and MBC values against all the selected MDR strains of EAEC, S. Enteritidis, and S. Typhimurium as described earlier.
# [2] = tested on: MDR-S. Enteritidis strains; experiment: Stability assay, pH (MIC)
# Text: as §5, §6
# [3] = Haemolytic assay; type: cell-based; conditions: read-out: Haemolysis; for hemolysis at 0.5 X MIC: 0.50X MIC
# Procedure: (§1) The haemolytic assay of the individual phytochemical was performed by measuring the release of haemoglobin from sheep and human ‘O’ erythrocytes at 540 nm. The percentage of haemolysis was calculated as (Asample – APBS)/ (ATriton−X – APBS) ×100, in which Asample is the absorbance of phytochemical treatment, APBS is the absorbance of untreated control with PBS, and ATriton−X is the absorbance of lysed cells treated with Triton X-100 measured at 540 nm.
# [4] = tested on: MDR-EAEC strains; experiment: Stability assay, pH (MIC)
# Text: as §5, §6
# [5] = tested on: MDR-EAEC strains; experiment: Stability assay, cationic salts (MIC)
# Text: as §5, §6
# [6] = tested on: MDR-S. Enteritidis strains; experiment: MIC and MBC by broth microdilution with resazurin; type: cell-based, Salmonella Enteritidis; conditions: poultry droppings isolate
# Text: (§2) The characterised MDR field strains of EAEC (E1; E2; E3), S. Enteritidis (S1; S2; S3), and S. Typhimurium (ST1; ST2; ST3) maintained in the laboratory repository of Meat Safety Laboratory of ICAR-National Research Centre on Meat, Hyderabad re-validated using PCR assays were used to evaluate the in vitro antibacterial efficacy of phytochemicals. E. coli ATCC 25922 was used as the quality control strain.
# (§3) The antimicrobial efficacy of identified phytochemicals against multi-drug resistant EAEC and NTS strains was determined by estimating the minimum inhibitory concentration (MIC) and minimum bactericidal concentrations (MBC).
# (§4) Subsequent to the incubation period, resazurin dye (0.015 %) was added to all the wells to determine the dye reduction (pink) and thereby the bacterial inhibition.
# [7] = tested on: MDR-S. Enteritidis strains; experiment: Stability assay, cationic salts (MIC)
# Text: as §5, §6
# [8] = tested on: MDR-S. Typhimurium strains; experiment: MIC and MBC by broth microdilution with resazurin; type: cell-based, Salmonella Typhimurium; conditions: poultry droppings isolate
# Text: as §2, §3, §4
# [9] = tested on: MDR-S. Typhimurium strains; experiment: Stability assay, cationic salts (MIC)
# Text: as §5, §6
# [10] = Haemolytic assay, text summary; type: cell-based; conditions: sheep and human, sheep and human 'O' erythrocytes; read-out: Haemolysis
# Procedure: as §1
# [11] = tested on: MDR-EAEC strains; experiment: MIC and MBC by broth microdilution with resazurin; type: cell-based, enteroaggregative Escherichia coli; conditions: infant diarrhoea isolate
# Text: as §2, §3, §4
# [12] = human 'O' erythrocytes, Human RBCs
structure (smiles),measurement,setting,value
"Cc1ccc(C(C)C)cc1O [Carvacrol, carvacrol]",MIC at given pH,"[1]; pH 4, strain ST1",0.5 µl/ml
same,MIC at given pH,"[1]; pH 4, strain ST2",0.5 µl/ml
same,MIC at given pH,"[1]; pH 4, strain ST3",1.0 µl/ml
same,MIC at given pH,"[1]; pH 6, strain ST1",0.5 µl/ml
same,MIC at given pH,"[1]; pH 6, strain ST2",1.0 µl/ml
same,MIC at given pH,"[1]; pH 6, strain ST3",1.0 µl/ml
same,MIC at given pH,"[1]; pH 8, strain ST1",2.0 µl/ml
same,MIC at given pH,"[1]; pH 8, strain ST2",1.0 µl/ml
same,MIC at given pH,"[1]; pH 8, strain ST3",1.0 µl/ml
same,MIC at given pH,"[2]; pH 4, strain S1",0.5 µl/ml
same,MIC at given pH,"[2]; pH 4, strain S2",0.5 µl/ml
same,MIC at given pH,"[2]; pH 4, strain S3",0.5 µl/ml
same,MIC at given pH,"[2]; pH 6, strain S1",0.5 µl/ml
same,MIC at given pH,"[2]; pH 6, strain S2",0.5 µl/ml
same,MIC at given pH,"[2]; pH 6, strain S3",0.5 µl/ml
same,MIC at given pH,"[2]; pH 8, strain S1",0.5 µl/ml
same,MIC at given pH,"[2]; pH 8, strain S2",0.5 µl/ml
same,MIC at given pH,"[2]; pH 8, strain S3",0.5 µl/ml
same,hemolysis at 0.25 X MIC,[3]; [12],2.66%
same,hemolysis at 0.5 X MIC,[3]; [12],4.88%
same,hemolysis at 1 X MIC,[3]; [12],11.2%
same,hemolysis at 2 X MIC,[3]; [12],57.2%
same,hemolysis at 4 X MIC,[3]; [12],82.1%
same,hemolysis at 8 X MIC,[3]; [12],92.7%
same,hemolysis at 0.25 X MIC,"[3]; sheep erythrocytes, Sheep RBCs",0%
same,hemolysis at 0.5 X MIC,"[3]; sheep erythrocytes, Sheep RBCs",0.773%
same,hemolysis at 1 X MIC,"[3]; sheep erythrocytes, Sheep RBCs",1.25%
same,hemolysis at 2 X MIC,"[3]; sheep erythrocytes, Sheep RBCs",75.7%
same,hemolysis at 4 X MIC,"[3]; sheep erythrocytes, Sheep RBCs",81.8%
same,hemolysis at 8 X MIC,"[3]; sheep erythrocytes, Sheep RBCs",86%
same,MIC at given pH,"[4]; pH 4, strain E1",0.5 µl/ml
same,MIC at given pH,"[4]; pH 4, strain E2",1.0 µl/ml
same,MIC at given pH,"[4]; pH 4, strain E3",0.5 µl/ml
same,Change of MIC values at varied pH,"[4]; pH 4.0 to 8.0, MDR-EAEC strains",two- to four-fold increase
same,MIC at given pH,"[4]; pH 6, strain E1",0.5 µl/ml
same,MIC at given pH,"[4]; pH 6, strain E2",1.0 µl/ml
same,MIC at given pH,"[4]; pH 6, strain E3",0.5 µl/ml
same,MIC at given pH,"[4]; pH 8, strain E1",0.5 µl/ml
same,MIC at given pH,"[4]; pH 8, strain E2",1.0 µl/ml
same,MIC at given pH,"[4]; pH 8, strain E3",0.5 µl/ml
same,MIC with cationic salt,"[5]; 2 mM MgCl2, strain E1",0.5 µl/ml
same,MIC with cationic salt,"[5]; 2 mM MgCl2, strain E2",1.0 µl/ml
same,MIC with cationic salt,"[5]; 2 mM MgCl2, strain E3",1.0 µl/ml
same,Change of MIC values with cationic salts,"[5]; 150 mM NaCl and 2 mM MgCl2, MDR-EAEC strains",two- to four-fold increase
same,MIC with cationic salt,"[5]; 150 mM NaCl, strain E1",1.0 µl/ml
same,MIC with cationic salt,"[5]; 150 mM NaCl, strain E2",1.0 µl/ml
same,MIC with cationic salt,"[5]; 150 mM NaCl, strain E3",1.0 µl/ml
same,MBC,[6]; S. Enteritidis (S1),0.50 µl/ml
same,MIC,[6]; S. Enteritidis (S1),0.12 µl/ml
same,MBC,[6]; S. Enteritidis (S2),0.50 µl/ml
same,MIC,[6]; S. Enteritidis (S2),0.25 µl/ml
same,MBC,[6]; S. Enteritidis (S3),0.50 µl/ml
same,MIC,[6]; S. Enteritidis (S3),0.25 µl/ml
same,MIC with cationic salt,"[7]; 2 mM MgCl2, strain S1",0.5 µl/ml
same,MIC with cationic salt,"[7]; 2 mM MgCl2, strain S2",0.5 µl/ml
same,MIC with cationic salt,"[7]; 2 mM MgCl2, strain S3",0.5 µl/ml
same,MIC with cationic salt,"[7]; 150 mM NaCl, strain S1",0.5 µl/ml
same,MIC with cationic salt,"[7]; 150 mM NaCl, strain S2",1.0 µl/ml
same,MIC with cationic salt,"[7]; 150 mM NaCl, strain S3",0.5 µl/ml
same,MBC,[8]; S. Typhimurium (ST1),0.50 µl/ml
same,MIC,[8]; S. Typhimurium (ST1),0.12 µl/ml
same,MBC,[8]; S. Typhimurium (ST2),0.50 µl/ml
same,MIC,[8]; S. Typhimurium (ST2),0.12 µl/ml
same,MBC,[8]; S. Typhimurium (ST3),0.50 µl/ml
same,MIC,[8]; S. Typhimurium (ST3),0.12 µl/ml
same,MIC with cationic salt,"[9]; 2 mM MgCl2, strain ST1",0.5 µl/ml
same,MIC with cationic salt,"[9]; 2 mM MgCl2, strain ST2",0.5 µl/ml
same,MIC with cationic salt,"[9]; 2 mM MgCl2, strain ST3",0.5 µl/ml
same,MIC with cationic salt,"[9]; 150 mM NaCl, strain ST1",0.5 µl/ml
same,MIC with cationic salt,"[9]; 150 mM NaCl, strain ST2",0.5 µl/ml
same,MIC with cationic salt,"[9]; 150 mM NaCl, strain ST3",0.5 µl/ml
same,hemolysis,[10],57 to 82%
same,MBC,[11]; EAEC (E1),1.0 µl/ml
same,MIC,[11]; EAEC (E1),0.25 µl/ml
same,MBC,[11]; EAEC (E2),0.50 µl/ml
same,MIC,[11]; EAEC (E2),0.50 µl/ml
same,MBC,[11]; EAEC (E3),0.50 µl/ml
same,MIC,[11]; EAEC (E3),0.25 µl/ml
